# Test results reported in PubChem BioAssay (NCI).
#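 Abbreviation: GI50, concentration required for 50% inhibition of growth. Definition used: TGI = concentration required for complete inhibition of growth.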
# Experiments:
# Test in all cases: NCI anticancer screen, dose series, 384-well format
# DU-145 prostate = tested on: DU-145 prostate
# RXF 393 renal = tested on: RXF 393 renal
# OVCAR-4 ovarian = tested on: OVCAR-4 ovarian
# 786-0 renal = tested on: 786-0 renal
# MCF7 breast = tested on: MCF7 breast
# SR leukemia = tested on: SR leukemia
# SF-295 CNS = tested on: SF-295 CNS
# MDA-MB-231 breast = tested on: MDA-MB-231 breast
# PC-3 prostate = tested on: PC-3 prostate
# RPMI-8226 leukemia = tested on: RPMI-8226 leukemia
# HL-60(TB) leukemia = tested on: HL-60(TB) leukemia
# T-47D breast = tested on: T-47D breast
# MDA-MB-435 melanoma = tested on: MDA-MB-435 melanoma
# CAKI-1 renal = tested on: CAKI-1 renal
# SW-620 colon = tested on: SW-620 colon
# MDA-MB-468 breast = tested on: MDA-MB-468 breast
# HCT-15 colon = tested on: HCT-15 colon
# TK-10 renal = tested on: TK-10 renal
# OVCAR-8 ovarian = tested on: OVCAR-8 ovarian
# SF-539 CNS = tested on: SF-539 CNS
# SNB-19 CNS = tested on: SNB-19 CNS
# NCI/ADR-RES ovarian = tested on: NCI/ADR-RES ovarian
# NCI-H226 lung = tested on: NCI-H226 lung
# NCI-H322M lung = tested on: NCI-H322M lung
# KM12 colon = tested on: KM12 colon
# EKVX NSCLC = tested on: EKVX NSCLC
# HCC-2998 colon = tested on: HCC-2998 colon
# IGROV1 ovarian = tested on: IGROV1 ovarian
# SK-OV-3 ovarian = tested on: SK-OV-3 ovarian
# OVCAR-5 ovarian = tested on: OVCAR-5 ovarian
# A549 NSCLC = tested on: A549 NSCLC
# SK-MEL-28 melanoma = tested on: SK-MEL-28 melanoma
# M14 melanoma = tested on: M14 melanoma
# HOP-92 NSCLC = tested on: HOP-92 NSCLC
# HT29 colon = tested on: HT29 colon
# SNB-75 CNS = tested on: SNB-75 CNS
# NCI-H23 lung = tested on: NCI-H23 lung
# MOLT-4 leukemia = tested on: MOLT-4 leukemia
# LOX IMVI melanoma = tested on: LOX IMVI melanoma
# SK-MEL-5 melanoma = tested on: SK-MEL-5 melanoma
# HS 578T breast = tested on: HS 578T breast
# NCI-H460 NSCLC = tested on: NCI-H460 NSCLC
# UO-31 renal = tested on: UO-31 renal
# UACC-257 melanoma = tested on: UACC-257 melanoma
# SF-268 CNS = tested on: SF-268 CNS
# U251 glioblastoma = tested on: U251 glioblastoma
# MALME-3M melanoma = tested on: MALME-3M melanoma
# COLO 205 colon = tested on: COLO 205 colon
# SN12C renal = tested on: SN12C renal
# HCT-116 colon = tested on: HCT-116 colon
# ACHN renal = tested on: ACHN renal
# OVCAR-3 ovarian = tested on: OVCAR-3 ovarian
# UACC-62 melanoma = tested on: UACC-62 melanoma
# A498 renal = tested on: A498 renal
# HOP-62 NSCLC = tested on: HOP-62 NSCLC
# NCI-H522 lung = tested on: NCI-H522 lung
# BT-549 breast = tested on: BT-549 breast
smiles,measurement,setting,value
COc1cc2nccc(Oc3ccc(NC(=O)NC4CC4)c(Cl)c3)c2cc1C(N)=O,GI50,DU-145 prostate,26.1 µM
same,TGI,DU-145 prostate,> 100 µM
same,GI50,RXF 393 renal,3.53 µM
same,TGI,RXF 393 renal,25.1 µM
same,GI50,OVCAR-4 ovarian,14.7 µM
same,TGI,OVCAR-4 ovarian,44.7 µM
same,GI50,786-0 renal,22.9 µM
same,TGI,786-0 renal,> 100 µM
same,GI50,MCF7 breast,35.4 µM
same,TGI,MCF7 breast,> 100 µM
same,GI50,SR leukemia,31.4 µM
same,TGI,SR leukemia,50.9 µM
same,GI50,SF-295 CNS,30.1 µM
same,TGI,SF-295 CNS,> 100 µM
same,GI50,MDA-MB-231 breast,17.3 µM
same,TGI,MDA-MB-231 breast,59.4 µM
same,GI50,PC-3 prostate,61.7 µM
same,TGI,PC-3 prostate,> 100 µM
same,GI50,RPMI-8226 leukemia,11.7 µM
same,TGI,RPMI-8226 leukemia,63 µM
same,GI50,HL-60(TB) leukemia,25.6 µM
same,TGI,HL-60(TB) leukemia,68.9 µM
same,GI50,T-47D breast,16.8 µM
same,TGI,T-47D breast,78.7 µM
same,GI50,MDA-MB-435 melanoma,74.1 µM
same,TGI,MDA-MB-435 melanoma,> 100 µM
same,GI50,CAKI-1 renal,9.97 µM
same,TGI,CAKI-1 renal,35.1 µM
same,GI50,SW-620 colon,77.4 µM
same,TGI,SW-620 colon,> 100 µM
same,GI50,MDA-MB-468 breast,11.5 µM
same,TGI,MDA-MB-468 breast,66.2 µM
same,GI50,HCT-15 colon,25.8 µM
same,TGI,HCT-15 colon,> 100 µM
same,GI50,TK-10 renal,51.5 µM
same,TGI,TK-10 renal,> 100 µM
same,GI50,OVCAR-8 ovarian,25.5 µM
same,TGI,OVCAR-8 ovarian,> 100 µM
same,GI50,SF-539 CNS,2.41 µM
same,TGI,SF-539 CNS,69.4 µM
same,GI50,SNB-19 CNS,44.6 µM
same,TGI,SNB-19 CNS,> 100 µM
same,GI50,NCI/ADR-RES ovarian,63.8 µM
same,TGI,NCI/ADR-RES ovarian,> 100 µM
same,GI50,NCI-H226 lung,0.817 µM
same,TGI,NCI-H226 lung,22.2 µM
same,GI50,NCI-H322M lung,48.3 µM
same,TGI,NCI-H322M lung,> 100 µM
same,GI50,KM12 colon,5.76 µM
same,TGI,KM12 colon,> 100 µM
same,GI50,EKVX NSCLC,29.1 µM
same,TGI,EKVX NSCLC,> 100 µM
same,GI50,HCC-2998 colon,> 100 µM
same,TGI,HCC-2998 colon,> 100 µM
same,GI50,IGROV1 ovarian,19.2 µM
same,TGI,IGROV1 ovarian,97.3 µM
same,GI50,SK-OV-3 ovarian,35.9 µM
same,TGI,SK-OV-3 ovarian,> 100 µM
same,GI50,OVCAR-5 ovarian,50 µM
same,TGI,OVCAR-5 ovarian,> 100 µM
same,GI50,A549 NSCLC,40 µM
same,TGI,A549 NSCLC,> 100 µM
same,GI50,SK-MEL-28 melanoma,72.8 µM
same,TGI,SK-MEL-28 melanoma,> 100 µM
same,GI50,M14 melanoma,23.4 µM
same,TGI,M14 melanoma,64.9 µM
same,GI50,HOP-92 NSCLC,14.5 µM
same,TGI,HOP-92 NSCLC,72.1 µM
same,GI50,HT29 colon,> 100 µM
same,TGI,HT29 colon,> 100 µM
same,GI50,SNB-75 CNS,12.1 µM
same,TGI,SNB-75 CNS,38.3 µM
same,GI50,NCI-H23 lung,14.2 µM
same,TGI,NCI-H23 lung,55.8 µM
same,GI50,MOLT-4 leukemia,5.38 µM
same,TGI,MOLT-4 leukemia,23.3 µM
same,GI50,LOX IMVI melanoma,52.2 µM
same,TGI,LOX IMVI melanoma,> 100 µM
same,GI50,SK-MEL-5 melanoma,17.8 µM
same,TGI,SK-MEL-5 melanoma,55.5 µM
same,GI50,HS 578T breast,12.2 µM
same,TGI,HS 578T breast,28 µM
same,GI50,NCI-H460 NSCLC,41 µM
same,TGI,NCI-H460 NSCLC,> 100 µM
same,GI50,UO-31 renal,15.9 µM
same,TGI,UO-31 renal,71.1 µM
same,GI50,UACC-257 melanoma,38.3 µM
same,TGI,UACC-257 melanoma,> 100 µM
same,GI50,SF-268 CNS,15.9 µM
same,TGI,SF-268 CNS,44.6 µM
same,GI50,U251 glioblastoma,30.7 µM
same,TGI,U251 glioblastoma,> 100 µM
same,GI50,MALME-3M melanoma,19.3 µM
same,TGI,MALME-3M melanoma,77.8 µM
same,GI50,COLO 205 colon,69.5 µM
same,TGI,COLO 205 colon,> 100 µM
same,GI50,SN12C renal,13.4 µM
same,TGI,SN12C renal,86.9 µM
same,GI50,HCT-116 colon,38.3 µM
same,TGI,HCT-116 colon,> 100 µM
same,GI50,ACHN renal,11.6 µM
same,TGI,ACHN renal,24.2 µM
same,GI50,OVCAR-3 ovarian,17.9 µM
same,TGI,OVCAR-3 ovarian,78 µM
same,GI50,UACC-62 melanoma,39.7 µM
same,TGI,UACC-62 melanoma,> 100 µM
same,GI50,A498 renal,22 µM
same,TGI,A498 renal,69.6 µM
same,GI50,HOP-62 NSCLC,38.2 µM
same,TGI,HOP-62 NSCLC,> 100 µM
same,GI50,NCI-H522 lung,5.29 µM
same,TGI,NCI-H522 lung,20.6 µM
same,GI50,BT-549 breast,3.76 µM
same,TGI,BT-549 breast,20.4 µM
